Experimental data: patent publication US12257290B2, “PIC1 inhibition of myeloperoxidase oxidative activity in an animal model” (priority 2018, dated 2025)
Ends that are not written are not given here.

How the values were obtained:
human neutrophils [1] = assay: MPO-initiated NET formation by human neutrophils (fluorescence microscopy, PicoGreen free DNA); type: cell-based; details: for reduction in free DNA (PicoGreen): vs MPO with no inhibitor
Experimental: (§1) Neutrophils from the blood of healthy volunteers were purified from heparinized blood by Hypaque-Ficoll step gradient centrifugation, dextran sedimentation, and hypotonic lysis, as previously described.
(§2) A Neutrophil Extracellular Trap assay was performed in a microtiter plate as follows. The formation of NETs was induced by incubating 2.0×10^5 neutrophils in a 96 well tissue culture plates with RPMI media alone, or adding 0.05% of H2O2, or 12 nM PMA, or 8 μg/ml MPO, or PA-dPEG24 at various concentrations. For immune complex sera induced NET formation, activated sera was made by adding 5 μl of ovalbumin-anti-ovalbumin immune complex to 5% NHS in 0.3 ml of GVBS^++. This combination was allowed to incubate for 30 minutes at 37° C., and then 0.05 ml was added to the neutrophils in RPMI. Cells were then incubated for 1.5 hours at 37° C. in 5% CO2 incubator.
(§3) NET formation was quantitatively assayed as follows. Free DNA was measured by PicoGreen in the supernatant recovered from the NET microtiter plate well assay. Five hundred units of […] (Fisher) were added to each well to allow for digestion of released extracellular DNA for 10 minutes in 37° C. incubator. The preparation was then aliquoted into an adjacent well and mixed 1:1 with prepared PICO green reagent (Fisher). The fluorescence was then quantified on a BioTek microplate reader at Excitation 485 nm/Emission 528 nm.
NET formation was assayed by fluorescence microscopy. Purified human neutrophils were assayed on a glass slide as follows. Cells were combined with RPMI media and the indicated stimuli as mentioned above in a tube and then aliquoted onto a glass slide circled with a hydrophobic slide marker. The slides were incubated for 1.5 hours at 37° C. in a 5% CO2 incubator at 37 degrees for 1.5 hours. Slides were fixed overnight with 4% paraformaldehyde at 4° C.
For all staining, the following conditions were used. Slides were washed in PBS and incubated in blocking solution (2% normal goat serum+2% bovine serum albumin in PBS) for 1 hour at room temperature. Then the slides were incubated with primary antibody at 1:300 in 2% BSA in PBS for 1 hour at room temperature. Slides were washed in PBS 3 times and incubated in fluorescent-labeled secondary antibody at 1:1000 or DAPI (Southern Biotech) at 0.25 pg/ml final in 2% BSA in PBS for 1 hour at room temperature. Slides were then washed 3 times in PBS and were imaged. Cells were visualized using a DP70 Digital Camera (Olympus Center, Valley Forge, PA), mounted on a BX50, Olympus microscope. Staining antibody pairs used were rabbit anti-MPO (Thermo Scientific) and rabbit anti-Histone H3 (Abcam) with the secondary goat anti-rabbit Alexa Fluor 488 (Novus Biologicals). […]

human neutrophils [2] = assay: Immune complex-activated serum-initiated NET formation by human neutrophils (fluorescence microscopy, PicoGreen free DNA); type: cell-based; details: for decrease of free DNA (PicoGreen): immune complex-activated sera + hydrogen peroxide
Experimental: as §1, §2, §3
NET formation was assayed by fluorescence microscopy. […]
PA-dPEG24 inhibits immune complex-initiated NET formation by human neutrophils. A potential relationship between immune complex-initiated complement-activated human sera and NET formation by human neutrophils was evaluated. […] The immune complex-initiated complement-activated human sera was then incubated with purified human neutrophils resulting in NET formation quantified by free DNA measurement with PicoGreen. The relative contribution of immune complexes was initially evaluated by themselves compared with immune complex-initiated complement-activated human sera for generation of NETs. […]

IALILEPICCQERAA-dPEG24 (cysteine pairing not given here) [PA-dPEG24, 15-amino acid PEGylated peptide, 24 PEG moieties at the C-terminus]
reduction in free DNA (PicoGreen) (human neutrophils [1]; 1.1 mM PA-dPEG24, P=0.02): 30%
reduction in free DNA (PicoGreen) (human neutrophils [1]; 4.5 mM PA-dPEG24, P=0.001): 3.7 fold
NET formation by fluorescence microscopy (human neutrophils [1]; 5 mM PA-dPEG24, MPO + hydrogen peroxide): blocked
appearance of neutrophils incubated with PA-dPEG24 alone, fluorescence microscopy (human neutrophils [1]; PA-dPEG24 only, no stimulus): appeared normal
decrease of free DNA (PicoGreen) (human neutrophils [2]; 2.2 mM PA-dPEG24, P=0.037): 23%
decrease of free DNA (PicoGreen) (human neutrophils [2]; 4.5 mM PA-dPEG24, P<0.001): 3 fold
NETs identified by fluorescence microscopy (human neutrophils [2]; 5 mM PA-dPEG24, immune complex-initiated complement-activated sera): no NETs were identified
